Tests used:
[1] = tested on: Pasteurella haemolytica 3R188 and 6R132; test: MIC by plate dilution method (horseblood-agar); assay type: cell-based; settings: both P. haemolytica isolates; single agent; observed during 24 hours
Description: Two clinical isolates of Pasteurella haemolytica were studied. The bacteria were isolated from calves and identified. The isolates included P. haemolytica 3R188 and 6R132.
The strength of the inoculating suspension was 2 MacFarland. The plates were observed during 24 hours after incubation.

[2] = tested on: Mycoplasma hyorhinis type strain BTS-7; test: MIC by serial broth dilution method (Friis broth, glucose metabolism colour change); assay type: cell-based; settings: single agent; read at day 5; 37°C aerobic
Description: Friis-broth was added to each well.

[3] = Acute toxicity (general statement); assay type: in vivo; settings: in combination with Clindamycin; mammals and humans

Question: For Polymyxin E (Colistin), which “minimal inhibitory concentrations (MICs)” value [1] is on record?
Answer: 1,6 µg/ml

Question: What about the MIC [2] of the same substance?
Answer: > 50 µg/mL

Question: What about the acute toxicity [3] of the same substance?
Answer: strikingly reduced
